Measurements from US11028136B2, “Tumor antigen peptide” (Sapporo Medical University, priority 2014, dated 2021).

What was measured:
Type in all cases: cell-based
[1] = system: CaSki cell line; test: Cell proliferation of siRNA-transfected cells; conditions: FIG. 14-1(b), 14-2
Protocol: (§1) MS751 and CaSki were each transfected with siRNAs for BORIS that had been designed to have the sequences shown in the table below in accordance with the protocol described in the Instructions by the manufacturer for the Lipofectamine RNAiMAX used. Cells were analyzed 48 hours after transfection. Trilencer-27 Universal Scrambled Negative Control siRNA (SR30004, Origene) was used as a negative control.

[2] = system: CaSki cell line; test: Stemness gene expression of siRNA-transfected cells; conditions: FIG. 15
Protocol: as §1

[3] = system: CaSki; test: Sphere formation capability of siRNA-transfected cells; conditions: FIG. 16-1(a)
Protocol: (§2) Sphere formation has been reported as being one of the indicators of cancer stem cell markers in cervical cancer. Therefore, a spheroid formation assay using a low adherent cell culture plate was carried out. Cervical cancer cell lines (CaSki, TCS, MS751, SKG-IIIb, ME-180, and SiHa) were cultured using a multi well plate having an ultra low adherent surface (Ultra Low Attachment 6-well plate, Corning). Adherent cultured cells were peeled off with a solution containing 0.25% trypsin in 2 mM EDTA, and were plated on each well at 10^3 cells/well. As a medium, one prepared by adding to a serum-free DMEM/F-12 medium 20 ng/mL of h-EGF (acquired from R&D systems), 10 ng/mL of b-FGF (acquired from R&D systems), 1% penicillin/streptomycin (acquired from GIBCO), 4 μg/mL of heparin, and a final concentration of 1% of N2 supplement (acquired from WAKO) was used, culturing was carried out under normal culturing conditions for 7 days or 14 days, and formation of spheroids of 100 μm or greater was confirmed for all of the cell lines (FIG. 1). […]
(§3) MS751 and CaSki were each transfected with siRNAs for BORIS that had been designed to have the sequences shown in the table below in accordance with the protocol described in the Instructions by the manufacturer for the Lipofectamine RNAiMAX used. Cells were analyzed 48 hours after transfection. […]

[4] = system: MS751; test: as above; conditions: FIG. 16-1(b)
Protocol: as §2, §3

With “rGrGrArArArUrArCrCrArCrGrArUrGrCrArArArUrUrUrCAT [siRNA2]” the Cell proliferation [1] was “slightly suppressed”, the Stemness gene suppression [2] was “did not occur at all” and the Sphere formation capability [3] was “markedly suppressed”. For the same substance, the Sphere formation capability [4] was “markedly suppressed”.
